Measured values published in ChEMBL document CHEMBL1136373, “Conformationally restricted 3,4-diarylfuranones (2,3a,4,5-tetrahydronaphthofuranones) as selective cyclooxygenase-2 inhibitors” (Bioorg Med Chem Lett, 2003).

Tests used:
[1] = target: T1, Prostaglandin G/H synthase 1 (Homo sapiens, UniProt P23219); experiment: In vitro inhibitory activity against recombinant human Prostaglandin G/H synthase 1 at concentration of 100 uM
[2] = target: T1, Prostaglandin G/H synthase 1; experiment: In vitro inhibitory activity against recombinant human Prostaglandin G/H synthase 1
[3] = target: T2, Prostaglandin G/H synthase 2 (Homo sapiens, UniProt P35354); experiment: In vitro inhibitory activity against recombinant human Prostaglandin G/H synthase 2
T2 sequence (P35354 whole entry): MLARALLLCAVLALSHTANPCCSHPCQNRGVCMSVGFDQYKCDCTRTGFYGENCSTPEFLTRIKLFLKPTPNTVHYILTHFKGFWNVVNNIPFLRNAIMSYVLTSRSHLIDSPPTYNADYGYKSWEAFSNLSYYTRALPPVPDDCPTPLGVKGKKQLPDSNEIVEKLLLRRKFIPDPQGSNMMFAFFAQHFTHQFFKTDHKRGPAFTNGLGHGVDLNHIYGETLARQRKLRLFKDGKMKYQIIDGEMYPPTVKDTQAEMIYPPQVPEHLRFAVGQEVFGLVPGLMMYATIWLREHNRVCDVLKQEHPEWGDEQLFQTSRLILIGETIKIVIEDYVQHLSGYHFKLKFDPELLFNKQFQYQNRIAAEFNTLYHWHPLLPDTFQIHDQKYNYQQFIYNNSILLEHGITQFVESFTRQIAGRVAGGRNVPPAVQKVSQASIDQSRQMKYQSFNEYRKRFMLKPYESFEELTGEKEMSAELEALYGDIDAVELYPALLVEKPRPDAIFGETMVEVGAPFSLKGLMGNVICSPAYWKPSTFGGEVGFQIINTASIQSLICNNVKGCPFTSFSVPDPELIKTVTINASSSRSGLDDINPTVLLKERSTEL

[4] = target: T1, Prostaglandin G/H synthase 1; experiment: Ratio of in vitro inhibitory activity against recombinant human COX-1 to that of recombinant human COX-2

T1 sequence (P23219 whole entry): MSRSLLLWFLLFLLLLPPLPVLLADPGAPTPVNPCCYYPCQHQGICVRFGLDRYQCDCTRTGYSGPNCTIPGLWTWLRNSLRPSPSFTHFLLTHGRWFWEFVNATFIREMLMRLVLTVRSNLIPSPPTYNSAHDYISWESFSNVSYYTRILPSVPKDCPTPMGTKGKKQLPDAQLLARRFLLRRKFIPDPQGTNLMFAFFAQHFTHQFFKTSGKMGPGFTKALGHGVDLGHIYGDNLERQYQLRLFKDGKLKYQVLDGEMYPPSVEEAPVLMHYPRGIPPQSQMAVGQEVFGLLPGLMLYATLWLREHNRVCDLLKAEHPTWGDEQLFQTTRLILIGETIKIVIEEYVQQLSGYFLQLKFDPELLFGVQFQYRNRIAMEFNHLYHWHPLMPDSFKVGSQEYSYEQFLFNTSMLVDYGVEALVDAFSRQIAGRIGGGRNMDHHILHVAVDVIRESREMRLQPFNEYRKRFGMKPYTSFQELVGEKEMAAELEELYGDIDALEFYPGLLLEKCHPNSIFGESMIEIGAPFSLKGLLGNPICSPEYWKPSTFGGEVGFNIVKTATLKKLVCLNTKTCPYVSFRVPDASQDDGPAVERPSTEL

| inhibition [1] [%] | IC50 [2] [µM] | IC50 [3] [µM] | Ratio [4] | Compound |
| --- | --- | --- | --- | --- |
| 100 | > 45 | 0.562 | – | CS(=O)(=O)c1ccc(C2=C3c4ccccc4CCC3OC2=O)cc1 (stereo unspecified) |
| 11 | – | – | – | C[S+]([O-])c1ccc(C2=C3c4ccccc4CCC3(O)OC2=O)cc1 (stereo unspecified) |
| 100 | 0.061 | 0.971 | – | CSc1ccc(C2=C3c4cc(C)ccc4CCC3OC2=O)cc1 (stereo unspecified) |
| 97 | 13.2 | 0.67 | – | CSc1ccc(C2=C3c4cc(C)ccc4CCC3(O)OC2=O)cc1 (stereo unspecified) |
| 57 | – | – | – | CS(=O)(=O)c1ccc(C2=C3c4ccccc4CCC3(O)OC2=O)cc1 (stereo unspecified) |
| 80 | 16.7 | 0.85 | – | CSc1ccc(C2=C3c4ccccc4CCC3(O)OC2=O)cc1 (stereo unspecified) |
| 52 | > 30 | 0.665 | > 45.1 | Cc1ccc2c(c1)C1=C(c3ccc(S(C)(=O)=O)cc3)C(=O)OC1CC2 (stereo unspecified) |

| Compound | inhibition [1] [%] | IC50 [2] [µM] | IC50 [3] [µM] | Ratio [4] |
| --- | --- | --- | --- | --- |
| CSc1ccc(C2=C3c4ccccc4CCC3OC2=O)cc1 (stereo unspecified) | 100 | 0.053 | 0.827 | – |
